Ends that are not written are not given here.
Experiments:
MAS receptor = assay: FLIPR calcium mobilization assay, HEK-293 cells expressing MAS receptor; assay type: cell-based, rat and human; settings: HEK-293 cells expressing the clone MAS receptor; Fluo-3
Experimental: HEK-293 cells were transfected with a mammalian expression construct coding for the rat and human MAS receptor (pcDNA 3.1 vector, Invitrogen) using the Superfect reagent (Qiagen). A stable receptor pool of MAS receptor was developed by applying a selection marker (G418, 0.9 mg/ml) and the cells were maintained in this selection medium. The presence of mRNA specific for clone MAS receptor was assessed by Northern blot analysis and by the reverse transcriptase polymerase chain reaction (RT-PCR).
(§1) A functional assay was performed with FLIPR (Fluorescent Imaging Plate Reader, Molecular Devices) using the fluorescent calcium indicator Fluo-3 (Molecular Probes) on a 96 well platform. HEK-293 cells, either expressing the receptor or wild type cells, were loaded with Fluo-3 as follows. Stable HEK-293 clones expressing rat and human MAS receptor or parental cells were plated at a density of 10,000 cells/well in a 96 well plate. On the day of the experiment, the MAS receptor cells were loaded with fluorescent solution (Dulbecco's modified medium with 10% fetal bovine serum containing 4 μM Fluo-3 and 20% pluronic acid). The cells were incubated at 37° C. for one hour in a humidified chamber. Following the incubation step, cells were washed five times in Hanks' with 20 mM Hepes and 0.1% BSA (pH 7.4). The cells were analyzed using the FLIPR system to measure the mobilization of intracellular calcium in response to different compounds.

parental HEK-293 cells = assay: FLIPR calcium mobilization assay, parental (non-transfected) HEK-293 cells; assay type: cell-based; settings: wild type (parental, non-transfected) HEK-293 cells; Fluo-3
Experimental: as §1

[1] = tested on: mouse peritoneal macrophages; settings: administered to mice; not inhibited by naloxone; cited from earlier work
[2] = non-thermal and mechanical analgesia, administered ICV; cited from earlier work

Row | Substance | calcium response (FLIPR signal) (MAS receptor) | calcium response (FLIPR signal) (parental HEK-293 cells) | phagocytosis [1] | analgesia [2]
1 | YGGFLRRIRPKLKWDNQ-COOH (YGGFLRRIRPKLKWDNQ-OH) [Dynorphin A] | consistently elicited signals | not in the wild type cells | enhanced phagocytosis | moderately effective
2 | YGGFLRRIRPKLKWDNQ-COOH or NH2 (not fully specified; printed as YGGFLRRIRPKLKWDNQ-COOH or NH2) [Dynorphin A-NH2, C-terminal amide analogue of Dynorphin A] | consistently elicited signals | not in the wild type cells |  | 
3 | Dynorphin A 1-13: analogue (fragment 1-13) of Dynorphin A (YGGFLRRIRPKLK; Dynorphin A(1-13); UniProt P01213 207-219, looked up, fragment) | consistently elicited signals | not in the wild type cells |  | 

Source: patent US7078177B2, “Method of assaying for agonists or antagonist of Dynorphin A binding to the MAS receptor” (AstraZeneca AB, priority 2000, dated 2006)
